Data taken from patent publication US9687479B2, “Multisubstituted aromatic compounds as serine protease inhibitors” (VERSEON CORPORATION, priority 2013, dated 2017).
Where two headings read alike, the source gives them in different places.

Columns and labels:
[1] = target: Human KLKB1 (Homo sapiens (Human), UniProt P03952); assay: KLKB1 kallikrein activity inhibition assay (chromogenic substrate S-2302); format: biochemical
Procedure: The KLKB1 kallikrein activity reported herein (e.g., Tables B, C, and D) was obtained as follows. Human KLKB1 protein was obtained from Enzyme Research Labs. […] KLKB1 was assayed in buffer containing 0.05 M Tris (pH 7.4), 0.01 M NaCl and 0.2% w/v PEG-8000. The final concentration of enzyme used was 3 nM KLKB1. […] All assays were performed in 96-well microtiter plates at room temperature (RT). […] Inhibitor IC50 values were determined by adding test compound as ten point, three-fold serial dilutions in buffer solution, as known in the art. The plate was read at 10 minutes after substrate addition. The IC50 was calculated by plotting the percent (%) inhibition against compound concentration and fitting the data to a constrained four parameter sigmoidal curve, as known in the art.

[2] = target: Human thrombin (Homo sapiens (Human), UniProt P00734); assay: Thrombin protease activity inhibition assay (chromogenic substrate S-2238); format: biochemical; conditions: 3 nM thrombin, 125 μM S-2238, 10 min pre-incubation, RT
In short: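 Thrombin at 3 nM final in 0.05 M Tris pH 7.4, 0.015 M NaCl, 0.01% PEG-8000, at room temperature; compounds as ten-point three-fold dilutions.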

[3] = 3 nM KLKB1, 250 μM S-2302, 10 min pre-incubation, RT

Human KLKB1, sequence (P03952 391-638 limits assumed): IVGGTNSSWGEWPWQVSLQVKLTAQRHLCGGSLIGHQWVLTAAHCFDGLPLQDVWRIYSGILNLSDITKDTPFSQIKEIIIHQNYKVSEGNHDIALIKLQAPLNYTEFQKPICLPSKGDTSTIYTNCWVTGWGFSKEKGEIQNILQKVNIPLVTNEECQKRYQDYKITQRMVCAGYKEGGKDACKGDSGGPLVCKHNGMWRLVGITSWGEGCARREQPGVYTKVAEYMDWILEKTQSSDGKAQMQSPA
Human KLKB1, sequence (P03952 20-390 partner limits assumed): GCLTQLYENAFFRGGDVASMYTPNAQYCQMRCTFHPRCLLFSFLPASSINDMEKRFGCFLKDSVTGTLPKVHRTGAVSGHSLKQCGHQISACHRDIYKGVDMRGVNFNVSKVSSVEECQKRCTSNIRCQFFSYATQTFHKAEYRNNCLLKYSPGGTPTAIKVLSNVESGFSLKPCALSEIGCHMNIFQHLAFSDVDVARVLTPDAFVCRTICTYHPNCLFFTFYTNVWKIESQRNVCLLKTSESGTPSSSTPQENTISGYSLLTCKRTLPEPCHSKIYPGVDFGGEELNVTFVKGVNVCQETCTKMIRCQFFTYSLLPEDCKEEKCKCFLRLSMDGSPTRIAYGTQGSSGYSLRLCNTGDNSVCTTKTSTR

IC50 ([1]; Table C) | Compound | also measured
1 to 10 µM | O=C(c1ccoc1)n1nc(-c2ccccn2)nc1NCc1ccc(F)cc1 [Cmpd 371] | 
1 to 10 µM | O=C(c1cccs1)n1nc(-c2ccccn2)nc1NCc1ccccc1 [Cmpd 404] | 
0.1 to 1 µM | COc1ccccc1C(=O)n1nc(-c2ccncn2)nc1NCc1ccccc1 [Cmpd 16] | 
10 to 100 µM | CCCC(=O)n1nc(-c2cccnc2)nc1NCc1ccc(F)cc1 [Cmpd 314] | 
0.1 to 1 µM | O=C(c1ccc(Cl)cc1)n1nc(-c2ccccn2)nc1NCc1ccccc1 [Cmpd 399] | 
10 to 100 µM | CC(C)C(=O)n1nc(-c2ccncc2)nc1NCc1ccc(F)cc1 [Cmpd 315] | 
1 to 10 µM | COc1ccccc1C(=O)n1nc(-c2ccco2)nc1NCc1ccccc1 [Cmpd 403] | 
> 100 µM | Fc1ccc(CNc2nc(-c3ccccn3)nn2-c2nc3ccccc3s2)cc1 [Cmpd 299] | 
1 to 10 µM | O=C(Cc1ccccc1)n1nc(-c2ccccn2)nc1NCc1ccc(F)cc1 [Cmpd 303] | 
1 to 10 µM | CC(C)(C)C(=O)n1nc(C2CCCO2)nc1NCc1ccc(Cl)s1 (stereo not shown) [Cmpd 331] | 
10 to 100 µM | CC(C)CC(=O)n1nc(-c2cccnc2)nc1NCc1ccc(F)cc1 [Cmpd 312] | 
10 to 100 µM | CC(C)(C)C(=O)n1nc(-c2cccnc2)nc1NCc1ccc(F)cc1 [Cmpd 308] | 
10 to 100 µM | CC(C)C(=O)n1nc(-c2ccccn2)nc1NCc1ccc(F)cc1 [Cmpd 302] | 
1 to 10 µM | CC(C)C(=O)n1nc(-c2ccncc2)nc1NCc1ccccc1 [Cmpd 351] | 

Continued, compound first:

Compound | IC50 ([1]; Table C) | also measured
COCCn1cccc(-c2cc(NCc3ccc(Cl)s3)n(C(=O)c3ccc(N4CCOCC4)cc3)n2)c1=O [Cmpd 208, 3-(5-[(5-chlorothiophen-2-yl)methyl]amino-1-[4-(morpholin-4-yl)phenyl]carbonyl-1H-pyrazol-3-yl)-1-(2-methoxyethyl)-1,2-dihydropyridin-2-one] |  | IC50 ([1]; Table B): 1 to 10 µM; IC50 [2]: < 0.1 µM
O=C(c1ccsc1)n1nc(-c2cccn(Cc3ccccn3)c2=O)cc1NCc1ccc(Cl)s1 [Cmpd 198, 3-(5-[(5-chlorothiophen-2-yl)methyl]amino-1-[(thiophen-3-yl)carbonyl]-1H-pyrazol-3-yl)-1-(pyridin-2-ylmethyl)-1,2-dihydropyridin-2-one] |  | IC50 ([1]; Table B): 0.1 to 1 µM; IC50 [2]: < 0.1 µM
Cn1cccc(-c2cc(NCc3ccc(Cl)s3)n(C(=O)c3ccccc3)n2)c1=O [Cmpd 73, 3-(1-benzoyl-5-[(5-chlorothiophen-2-yl)methyl]amino-1H-pyrazol-3-yl)-1-methyl-1,2-dihydropyridin-2-one] |  | IC50 ([1]; Table B): > 100 µM; IC50 [2]: < 0.1 µM
Cc1cc(N(C)c2ccccc2)nc(N[C@H]2CCc3c(N)cccc3C2)n1 [Cmpd 422, 2-N-[(2S)-5-amino-1,2,3,4-tetrahydronaphthalen-2-yl]-4-N,6-dimethyl-4-N-phenylpyrimidine-2,4-diamine] |  | IC50 [1, 3]: > 100 µM
Cc1cc(N(C)c2ccc(Cl)cc2)nc(N[C@H]2CCc3c(N)cccc3C2)n1 [Cmpd 425, 2-N-[(2S)-5-amino-1,2,3,4-tetrahydronaphthalen-2-yl]-4-N-(4-chlorophenyl)-4-N,6-dimethylpyrimidine-2,4-diamine] |  | IC50 [1, 3]: > 100 µM
Cc1cc(N(C)c2cccc(Cl)c2)nc(N[C@H]2CCc3c(N)cccc3C2)n1 [Cmpd 424, 2-N-[(2S)-5-amino-1,2,3,4-tetrahydronaphthalen-2-yl]-4-N-(3-chlorophenyl)-4-N,6-dimethylpyrimidine-2,4-diamine] |  | IC50 [1, 3]: > 100 µM
CC(C)CC(=O)n1nc(-c2ccncc2)nc1NCc1ccc(F)cc1 [Cmpd 316] | > 100 µM | 
CCCn1nc(-c2ccccn2)nc1NCc1ccc(F)cc1 [Cmpd 374] | > 100 µM | 
O=C(c1ccoc1)n1nc(-c2ccccn2)nc1NCc1ccccc1 [Cmpd 401] | > 100 µM | 
Cn1cc(Cl)c2cc(CNC(=O)[C@H]3CC(=O)N(Cc4ccc(Cl)cc4)C3)ccc21 [Cmpd 416, (3S)-N-[(3-chloro-1-methyl-1H-indol-5-yl)methyl]-1-[(4-chlorophenyl)methyl]-5-oxopyrrolidine-3-carboxamide] |  | IC50 [1, 3]: 10 to 100 µM
CC(C)(C)C(=O)n1nc(-c2ncccc2F)cc1NCc1ccc(Cl)s1 [Cmpd 269] |  | IC50 ([1]; Table B): > 100 µM
COc1ccc(CNc2nc(-c3ccncc3)nn2C(=O)c2ccco2)cc1 [Cmpd 337] | > 100 µM | 
O=C(c1ccoc1)n1nc(-c2ccncc2)nc1NCc1ccc(F)cc1 [Cmpd 373] | > 100 µM | 
CC(C)(CO)C(=O)n1nc(-c2ccccc2)c(F)c1NCc1ccc(Cl)s1 [Cmpd 275] |  | IC50 ([1]; Table B): > 100 µM
CC(C)CC(=O)n1nc(-c2ccncc2)nc1NCc1ccccc1 [Cmpd 353] | > 100 µM | 
COc1ccccc1C(=O)n1nc(-c2ncccc2F)cc1NCc1ccc(Cl)s1 [Cmpd 290] |  | IC50 ([1]; Table B): > 100 µM
O=C(c1ccsc1)n1nc(-c2ccncc2)nc1NCc1ccc(F)cc1 [Cmpd 11] | 1 to 10 µM | 
CC(C)(C)C(=O)n1nc(-c2ccncc2)nc1NCc1ccccc1 [Cmpd 350] | > 100 µM | 
CCC(=O)n1nc(-c2ccccc2)cc1NCc1ccc(F)cc1 [Cmpd 268] |  | IC50 ([1]; Table B): > 100 µM

Compound | IC50 ([1]; Table C) | also measured
CC(C)(C)C(=O)n1nc(-c2ccccn2)cc1NCc1ccco1 [Cmpd 280, 1-5-[(furan-2-ylmethyl)amino]-3-(pyridin-2-yl)-1H-pyrazol-1-yl-2,2-dimethylpropan-1-one] |  | IC50 ([1]; Table B): > 100 µM
O=C(c1ccoc1)n1nc(C2CCCO2)nc1NCc1ccc(Cl)s1 (stereo not shown) [Cmpd 392] | 0.1 to 1 µM | 
COc1ccccc1C(=O)n1nc(-c2ccccc2)c(F)c1NCc1ccccc1 [Cmpd 296] |  | IC50 ([1]; Table B): > 100 µM
O=C(c1ccoc1)n1nc(-c2ccccc2)c(F)c1NCc1ccc(Cl)s1 [Cmpd 295] |  | IC50 ([1]; Table B): > 100 µM
CC(C)(C)OC(=O)n1nc(-c2cccnc2)nc1NCc1ccc(F)cc1 [Cmpd 413] | > 100 µM | 
COc1ccccc1C(=O)n1nc(C2CCN(C(=O)OC(C)(C)C)CC2)nc1NCc1ccc(Cl)s1 [Cmpd 412] | 0.1 to 1 µM | 
O=C(c1ccoc1)n1nc(-c2cccs2)cc1NCc1ccc(Cl)s1 [Cmpd 289] |  | IC50 ([1]; Table B): > 100 µM
O=C(c1cccs1)n1nc(-c2ccncc2)nc1NCc1ccc(F)cc1 [Cmpd 378] | > 100 µM | 
COc1ccccc1C(=O)n1nc(C2CN(S(=O)(=O)N3CCCC3)C2)nc1NCc1ccc(Cl)s1 [Cmpd 388] | < 0.1 µM | 
Cc1cc(N(C)c2ccccc2Cl)nc(N[C@H]2CCc3c(N)cccc3C2)n1 [Cmpd 423, 2-N-[(2S)-5-amino-1,2,3,4-tetrahydronaphthalen-2-yl]-4-N-(2-chlorophenyl)-4-N,6-dimethylpyrimidine-2,4-diamine] |  | IC50 [1, 3]: 10 to 100 µM
COc1ccc(CNc2nc(-c3ccccn3)nn2C(=O)C(C)C)cc1 [Cmpd 320] | > 100 µM | 
COc1ccccc1C(=O)n1nc(-c2ccc(N3CCOCC3)cc2)nc1NCc1ccc(Cl)s1 [Cmpd 389] | 1 to 10 µM | 
COc1ccccc1C(=O)n1nc(-c2cncnc2)nc1NCc1ccccc1 [Cmpd 17] | 0.1 to 1 µM | 
COc1ccccc1C(=O)n1nc(-c2ccccn2)cc1NCc1cccs1 [Cmpd 278] |  | IC50 ([1]; Table B): > 100 µM
O=C(c1ccsc1)n1nc(-c2cccnc2)nc1NCc1ccc(F)cc1 [Cmpd 377] | 0.1 to 1 µM | 
CCC(=O)n1nc(-c2ccncc2)nc1NCc1ccc(F)cc1 [Cmpd 318] | > 100 µM | 
COC(=O)c1n[nH]c(NC(=O)c2ccc(C)cc2)n1 [Cmpd 408, methyl 5-[(4-methylbenzene)amido]-1H-1,2,4-triazole-3-carboxylate] |  | IC50 [1]: > 100 µM
O=C(Cc1ccccc1)n1nc(-c2ccncc2)nc1NCc1ccccc1 [Cmpd 352] | > 100 µM | 
COc1ccccc1C(=O)n1nc(C2CCCO2)nc1NCc1ccc(Cl)s1 (stereo not shown) [Cmpd 386] | 0.1 to 1 µM | 
